“And” between values parts separate entries of the source, which are not always exact repeats. Identical values can stand only once.
Tested on: WM3248 melanoma cells, 486 antibodies
Experiment: Reverse phase protein arrays (RPPA)
Format: cell-based, Human
Excerpt: Pellets were snap frozen in liquid nitrogen and shipped to MD Anderson Cancer Center core RPPA facility for RPPA analysis (Table S5). Three biological replicates for each sample were generated.
Nomenclatures on the RPPA heatmaps: name_of_antibody.species_of_antibody.status_of_antibody. V - antibody validated; C - validation of antibody in progress; Q - antibody nonspecific; E – under evaluation; antibodies raised in M - mouse, G - goat, R - rabbit, or T - rat.

[1] = level 5 normalized to 0, mean of 3
[2] = level 5 normalized to 0, single replicates

Question: What does the source list for `CN(C)c1cccc(Nc2cc(-c3ccccc3)nc(C3CCNCC3)n2)c1` [ARN22089, N1,N1-dimethyl-N3-(6-phenyl-2-(piperidin-4-yl)pyrimidin-4-yl)benzene-1,3-diamine]?
Answer: S6 phosphorylation at serine 235/236 and 240/244 (RPPA) (WM3248, 6 h, 10 and 20 μM): inhibit S6 phosphorylation; number of proteins with significantly influenced phosphorylation (RPPA) (WM3248, 6 h, 10 and/or 20 μM): 10; number of proteins with significantly influenced abundance (RPPA) (WM3248, 6 h, 10 and/or 20 μM, 486 antibodies): 38; TSC1.R.C Norm_5 Average [1]: 1.102; TTF1.R.V Norm_5 Average [1]: 1.049; TUFM.R.V Norm_5 Average [1]: 0.868; Tuberin_pT1462.R.V Norm_5 Average [1]: 0.977; Twist.M.C Norm_5 Average [1]: 0.950; Tyro3.R.V Norm_5 Average [1]: 1.005; U.Histone.H2B.R.C Norm_5 Average [1]: 1.142; UBAC1.R.V Norm_5 Average [1]: 0.993; UBQLN4.M.C Norm_5 Average [1]: 1.016; ULK1_pS757.R.C Norm_5 Average [1]: 1.079; UQCRC2.M.C Norm_5 Average [1]: 0.979; UVRAG.R.C Norm_5 Average [1]: 1.020; VASP.R.V Norm_5 Average [1]: 0.994; VAV1.R.C Norm_5 Average [1]: 1.019; VEGFR.2.R.V Norm_5 Average [1]: 1.081; VEGFR.2_pY1175.R.C Norm_5 Average [1]: 0.910; VHL.R.C Norm_5 Average [1]: 0.932; Vinculin.M.V Norm_5 Average [1]: 1.019; WIPI1.R.C Norm_5 Average [1]: 1.058; WIPI2.R.C Norm_5 Average [1]: 1.061; WTAP.R.V Norm_5 Average [1]: 0.959; Wee1.R.C Norm_5 Average [1]: 1.054; Wee1_pS642.R.C Norm_5 Average [1]: 0.993; XBP.1.G.C Norm_5 Average [1]: 0.977; XIAP.R.C Norm_5 Average [1]: 1.035; XPA.M.V Norm_5 Average [1]: 0.929; XPF.R.C Norm_5 Average [1]: 0.943; XRCC1.R.C Norm_5 Average [1]: 0.946; YAP.R.C Norm_5 Average [1]: 0.953; YAP_pS127.R.V Norm_5 Average [1]: 0.906; YB1_pS102.R.V Norm_5 Average [1]: 0.961; YES1.R.V Norm_5 Average [1]: 0.962; YTHDF2.R.V Norm_5 Average [1]: 1.076; YTHDF3.R.C Norm_5 Average [1]: 0.987; ZAP.70.R.V Norm_5 Average [1]: 0.952; ZEB1.R.V Norm_5 Average [1]: 0.892; TSC1.R.C Norm_5_1 to Norm_5_3 [2]: 1.060 and 1.024 and 1.221; TTF1.R.V Norm_5_1 to Norm_5_3 [2]: 1.035 and 1.145 and 0.966; TUFM.R.V Norm_5_1 to Norm_5_3 [2]: 0.845 and 0.669; Tuberin.R.V Norm_5_1 to Norm_5_3 [2]: 1.052 and 1.301; Tuberin_pT1462.R.V Norm_5_1 to Norm_5_3 [2]: 0.994 and 0.956 and 0.983; Twist.M.C Norm_5_1 to Norm_5_3 [2]: 0.898 and 0.964 and 0.990; Tyro3.R.V Norm_5_1 to Norm_5_3 [2]: 1.008 and 1.152 and 0.855; U.Histone.H2B.R.C Norm_5_1 to Norm_5_3 [2]: 1.497 and 1.118 and 0.811; UBAC1.R.V Norm_5_1 to Norm_5_3 [2]: 0.966 and 1.139 and 0.875; UBQLN4.M.C Norm_5_1 to Norm_5_3 [2]: 0.962 and 1.147; UGT1A.M.V Norm_5_1 to Norm_5_3 [2]: 0.962 and 0.965 and 0.979; ULK1_pS757.R.C Norm_5_1 to Norm_5_3 [2]: 0.993 and 1.063; UQCRC2.M.C Norm_5_1 to Norm_5_3 [2]: 0.997 and 1.139 and 0.800; UVRAG.R.C Norm_5_1 to Norm_5_3 [2]: 1.096 and 0.960 and 1.005; VASP.R.V Norm_5_1 to Norm_5_3 [2]: 1.053 and 0.992; VAV1.R.C Norm_5_1 to Norm_5_3 [2]: 1.027 and 0.961; VEGFR.2.R.V Norm_5_1 to Norm_5_3 [2]: 0.985 and 1.166; VEGFR.2_pY1175.R.C Norm_5_1 to Norm_5_3 [2]: 0.849 and 0.870 and 1.011; VHL.EPPK1.M.C Norm_5_1 to Norm_5_3 [2]: 0.542 and 1.028 and 0.909; VHL.R.C Norm_5_1 to Norm_5_3 [2]: 0.928 and 0.903 and 0.966; Vinculin.M.V Norm_5_1 to Norm_5_3 [2]: 0.942 and 1.027; WIPI1.R.C Norm_5_1 to Norm_5_3 [2]: 1.134 and 1.302 and 0.738; WIPI2.R.C Norm_5_1 to Norm_5_3 [2]: 1.104 and 0.916 and 1.163; WTAP.R.V Norm_5_1 to Norm_5_3 [2]: 0.932 and 0.904; Wee1.R.C Norm_5_1 to Norm_5_3 [2]: 0.867 and 1.101 and 1.195; Wee1_pS642.R.C Norm_5_1 to Norm_5_3 [2]: 0.917 and 0.940 and 1.121; XBP.1.G.C Norm_5_1 to Norm_5_3 [2]: 0.957 and 1.060 and 0.914; XIAP.R.C Norm_5_1 to Norm_5_3 [2]: 1.060 and 0.982 and 1.062; XPA.M.V Norm_5_1 to Norm_5_3 [2]: 0.895 and 0.876 and 1.017; XPF.R.C Norm_5_1 to Norm_5_3 [2]: 0.932 and 0.922 and 0.975; XRCC1.R.C Norm_5_1 to Norm_5_3 [2]: 0.894 and 1.030 and 0.916; YAP.R.C Norm_5_1 to Norm_5_3 [2]: 0.937 and 0.945 and 0.977; YAP_pS127.R.V Norm_5_1 to Norm_5_3 [2]: 0.985 and 0.903 and 0.830; YB1_pS102.R.V Norm_5_1 to Norm_5_3 [2]: 0.906; YES1.R.V Norm_5_1 to Norm_5_3 [2]: 0.963 and 1.014 and 0.910; YTHDF2.R.V Norm_5_1 to Norm_5_3 [2]: 1.138 and 1.217 and 0.872; YTHDF3.R.C Norm_5_1 to Norm_5_3 [2]: 1.049 and 0.875; ZAP.70.R.V Norm_5_1 to Norm_5_3 [2]: 0.889 and 1.054; ZEB1.R.V Norm_5_1 to Norm_5_3 [2]: 0.816 and 0.893 and 0.967; HLA.DQA1.R.V Norm_5 Average (level 5 vs 0): 0.908; HLA.DR.DP.DQ.DX.R.C Norm_5 Average (level 5 vs 0): 0.994; HSP27.M.C Norm_5 Average (level 5 vs 0): 0.932; HSP27_pS82.R.V Norm_5 Average (level 5 vs 0): 1.025; HSP60.R.V Norm_5 Average (level 5 vs 0): 1.006; HSP70.R.C Norm_5 Average (level 5 vs 0): 1.035; Hexokinase.I.R.C Norm_5 Average (level 5 vs 0): 1.032; Hexokinase.II.R.V Norm_5 Average (level 5 vs 0): 1.130; Hif.1αR.C Norm_5 Average (level 5 vs 0): 1.202; Histone.H3.R.V Norm_5 Average (level 5 vs 0): 1.065; Histone.H3_pS10.R.V Norm_5 Average (level 5 vs 0): 0.786; IDO.R.C Norm_5 Average (level 5 vs 0): 1.015; IGF1R_pY1135_Y1136.R.V Norm_5 Average (level 5 vs 0): 1.003; IGFBP2.R.V Norm_5 Average (level 5 vs 0): 1.029; IGFBP3.M.V Norm_5 Average (level 5 vs 0): 0.953; IGFRb.R.C Norm_5 Average (level 5 vs 0): 1.085; IL.6.R.C Norm_5 Average (level 5 vs 0): 1.015; INPP4b.R.C Norm_5 Average (level 5 vs 0): 1.023; IR.b.R.C Norm_5 Average (level 5 vs 0): 1.051; IRF.1.R.V Norm_5 Average (level 5 vs 0): 0.995; IRF.3.R.V Norm_5 Average (level 5 vs 0): 0.937; IRS1.R.V Norm_5 Average (level 5 vs 0): 1.023; IRS2.R.C Norm_5 Average (level 5 vs 0): 0.992; JNK2.R.V Norm_5 Average (level 5 vs 0): 1.065; JNK_pT183_Y185.R.C Norm_5 Average (level 5 vs 0): 0.992; Jagged1.R.V Norm_5 Average (level 5 vs 0): 0.984; Jak2.R.V Norm_5 Average (level 5 vs 0): 1.003; KEAP1.R.V Norm_5 Average (level 5 vs 0): 0.955; LAD1.R.V Norm_5 Average (level 5 vs 0): 0.963; LC3A.B.R.C Norm_5 Average (level 5 vs 0): 1.012; LCN2.R.V Norm_5 Average (level 5 vs 0): 1.298; LDHA.R.C Norm_5 Average (level 5 vs 0): 1.102; LRP6_pS1490.R.V Norm_5 Average (level 5 vs 0): 1.046; Lasu1.R.V Norm_5 Average (level 5 vs 0): 0.972; Lck.R.V Norm_5 Average (level 5 vs 0): 1.010; Lyn.R.V Norm_5 Average (level 5 vs 0): 0.844; MAPK_pT202_Y204.R.C Norm_5 Average (level 5 vs 0): 0.869; MCT4.R.V Norm_5 Average (level 5 vs 0): 1.048; MDM2_pS166.R.V Norm_5 Average (level 5 vs 0): 1.023; MEK1.R.V Norm_5 Average (level 5 vs 0): 1.023; MEK1_pS217_S221.R.V Norm_5 Average (level 5 vs 0): 0.982; MERIT40.R.C Norm_5 Average (level 5 vs 0): 0.989; METTL3.R.V Norm_5 Average (level 5 vs 0): 0.986; MIF.R.C Norm_5 Average (level 5 vs 0): 0.948; MIG6.R.V Norm_5 Average (level 5 vs 0): 0.939; MITF.R.V Norm_5 Average (level 5 vs 0): 1.020; MLH1.M.V Norm_5 Average (level 5 vs 0): 0.926; MLKL.R.V Norm_5 Average (level 5 vs 0): 0.945; MMP2.R.V Norm_5 Average (level 5 vs 0): 0.946; MR1.M.C Norm_5 Average (level 5 vs 0): 0.994; MRAP.R.C Norm_5 Average (level 5 vs 0): 1.051; MSH2.R.C Norm_5 Average (level 5 vs 0): 0.954; MSH6.R.C Norm_5 Average (level 5 vs 0): 1.056; MSI2.R.C Norm_5 Average (level 5 vs 0): 1.081; MTCO1.M.V Norm_5 Average (level 5 vs 0): 1.081; MTSS1.M.C Norm_5 Average (level 5 vs 0): 0.950; Mcl.1.R.V Norm_5 Average (level 5 vs 0): 0.960; MelanA.R.C Norm_5 Average (level 5 vs 0): 1.007; Melanoma.gp100.R.C Norm_5 Average (level 5 vs 0): 1.060; Merlin.R.C Norm_5 Average (level 5 vs 0): 1.018; Midkine.R.V Norm_5 Average (level 5 vs 0): 0.932; Mitofusin.1.R.V Norm_5 Average (level 5 vs 0): 1.025; Mnk1.R.V Norm_5 Average (level 5 vs 0): 1.012; mTOR.R.V Norm_5 Average (level 5 vs 0): 1.033; mTOR_pS2448.R.C Norm_5 Average (level 5 vs 0): 1.080; HLA.DQA1.R.V Norm_5 (level 5 vs 0, replicates): 0.839 and 1.026 and 0.858; HLA.DR.DP.DQ.DX.R.C Norm_5 (level 5 vs 0, replicates): 0.915 and 1.122 and 0.946; HMHA1.R.V Norm_5 (level 5 vs 0, replicates): 1.034 and 1.050 and 1.124; HNRNPK.R.V Norm_5 (level 5 vs 0, replicates): 0.924 and 0.922 and 0.995; HSP27.M.C Norm_5 (level 5 vs 0, replicates): 0.955 and 1.006 and 0.835; HSP27_pS82.R.V Norm_5 (level 5 vs 0, replicates): 0.966 and 0.991 and 1.118; HSP60.R.V Norm_5 (level 5 vs 0, replicates): 1.007 and 0.973; HSP70.R.C Norm_5 (level 5 vs 0, replicates): 1.007 and 1.047 and 1.051; Hexokinase.I.R.C Norm_5 (level 5 vs 0, replicates): 1.009 and 1.149; Hexokinase.II.R.V Norm_5 (level 5 vs 0, replicates): 1.156 and 1.123 and 1.110; Hif.1αR.C Norm_5 (level 5 vs 0, replicates): 1.356 and 1.081 and 1.170; Histone.H3.R.V Norm_5 (level 5 vs 0, replicates): 1.165 and 1.542 and 0.488; Histone.H3_pS10.R.V Norm_5 (level 5 vs 0, replicates): 0.733 and 1.032 and 0.592; IDO.R.C Norm_5 (level 5 vs 0, replicates): 1.121 and 0.959 and 0.966; IGF1R_pY1135_Y1136.R.V Norm_5 (level 5 vs 0, replicates): 0.933 and 1.035; IGFBP2.R.V Norm_5 (level 5 vs 0, replicates): 0.940 and 1.033 and 1.113; IGFBP3.M.V Norm_5 (level 5 vs 0, replicates): 0.833 and 0.934; IGFRb.R.C Norm_5 (level 5 vs 0, replicates): 1.063 and 1.065 and 1.126; IL.6.R.C Norm_5 (level 5 vs 0, replicates): 1.051 and 0.961 and 1.033; IMP3.R.C Norm_5 (level 5 vs 0, replicates): 0.861 and 0.973 and 1.018

Reference: publication PMC9127750, “Structure-based design of CDC42 effector interaction inhibitors for the treatment of cancer” (Cell reports, 2022)
